Test results: article PMC5351590, “Cucurbitacin B exerts anti-cancer activities in human multiple myeloma cells in vitro and in vivo by modulating multiple cellular pathways” (Oncotarget, 2016)
pIC50: −log10 of the molar value.

Biological target: T1, Aurora A (Homo sapiens, UniProt O14965)
T1 construct: gene AURKA
T1 sequence (O14965 1-403): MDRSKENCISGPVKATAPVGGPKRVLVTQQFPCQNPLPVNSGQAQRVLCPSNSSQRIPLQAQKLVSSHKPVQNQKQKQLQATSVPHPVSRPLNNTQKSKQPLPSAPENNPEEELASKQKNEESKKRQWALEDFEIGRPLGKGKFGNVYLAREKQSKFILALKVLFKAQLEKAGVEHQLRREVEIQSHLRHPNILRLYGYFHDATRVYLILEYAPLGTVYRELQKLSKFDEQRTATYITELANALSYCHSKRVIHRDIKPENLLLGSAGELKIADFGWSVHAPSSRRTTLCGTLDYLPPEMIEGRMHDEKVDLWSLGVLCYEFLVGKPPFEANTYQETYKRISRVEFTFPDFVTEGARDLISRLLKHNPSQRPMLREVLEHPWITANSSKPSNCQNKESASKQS
Test: radiometric […]-ATP kinase assay with purified kinase (Dundee panel; dose-response)
Type: biochemical

Compound `CC(=O)OC(C)(C)/C=C/C(=O)[C@](C)(O)[C@H]1[C@H](O)C[C@@]2(C)[C@@H]3CC=C4[C@@H](C[C@H](O)C(=O)C4(C)C)[C@]3(C)C(=O)C[C@]12C` [CuB, Cucurbitacin B] has a pIC50 of 7.00.
